Source: paper PMC9555310, “Novel inhibitors and activity-based probes targeting serine proteases” (Frontiers in Chemistry, 2022)

What was measured:
plasmin = target: T1, plasmin (Homo sapiens, UniProt P00747); experiment: Activity-based profiling of plasmin (SDS-PAGE, streptavidin-HRP western blot); format: binding; details: 50 μM, 30 min, 37°C
T1 construct: purchased Sigma-Aldrich (supplement); R&D Systems; host or cells: human plasma
Description: Samples of recombinant protease (trypsin, plasmin, thrombin, chymotrypsin, or HNE, as indicated in the relevant figure legends) were treated with each of the newly synthesized compounds at a concentration of 50 μM, for 30 min, at 37°C. A control sample (no ABP) was prepared by treating the recombinant protease with solvent vehicle (DMF) only, used to prepare the stock solution of each ABP. Samples were also pre-treated (±90°C for 30 min) before being incubated with each putative ABP. With trypsin and thrombin, further samples were prepared where Z-Arg^P-(OPh)2 or NAP559, respectively, was added 30 min prior to the addition of the ABP under examination. All treated samples were then denatured with SDS containing reducing treatment buffer (10 min at 95°C), followed by resolution by SDS-PAGE and subjected to Western blotting. Resolved proteins were then transferred onto the nitrocellulose membrane and labeled with streptavidin-HRP. The ABP–protease complex was then visualized following treatment with Luminata Forte HRP substrate.
FIGURE 8 Activity Based Profiling of Trypsin-like serine proteases. (A) trypsin was treated (±) with NAP830, for 30 min, at 37°C (± pretreatment with Z-Arg^P-(OPh)2). (B) thrombin (1 […]) was pre-treated with various concentrations of NAP559 (30 min, at 37°C) followed by treatment (±) with NAP858 for 30 min, at 37°C. (C) Plasmin was treated in turn with QUBTL1, NAP962 and NAP830, (± pre-heat inactivation at 95°C, for 10 min) for 30 min, at 37°C. […]
(§1) Following transfer, the extra protein binding sites on the membrane were blocked by addition of 3% (w/v) BSA in TBST (20 mM Tris, 137 mM NaCl, 1% (v/v) Tween 20, pH 7.6) and agitated gently at room temperature for 30 minutes. The biotin-labelled proteases were then detected by addition of Streptavidin-HRP (Vector Laboratories) in 3% (w/v) BSA in TBST at a concentration of 1:20000, for 1 hour at room temperature. […]

NE = target: T2, NE (Homo sapiens, UniProt P08246); experiment: Activity-based profiling of NE (SDS-PAGE, streptavidin-HRP western blot); format: binding; details: 50 μM ABP, 30 min, 37°C; labelling extinguished by heat inactivation of NE
T2 construct: purchased Calbiochem
T2 sequence (P08246 30-267): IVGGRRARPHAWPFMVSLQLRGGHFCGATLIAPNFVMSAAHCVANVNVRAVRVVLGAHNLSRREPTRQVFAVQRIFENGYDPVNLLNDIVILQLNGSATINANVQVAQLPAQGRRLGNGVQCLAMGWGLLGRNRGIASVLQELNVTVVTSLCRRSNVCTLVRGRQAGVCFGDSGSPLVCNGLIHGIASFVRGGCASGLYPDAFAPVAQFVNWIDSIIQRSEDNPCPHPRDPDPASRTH
Description: Samples of recombinant protease (trypsin, plasmin, thrombin, chymotrypsin, or HNE, as indicated in the relevant figure legends) were treated with each of the newly synthesized compounds at a concentration of 50 μM, for 30 min, at 37°C. A control sample (no ABP) was prepared by treating the recombinant protease with solvent vehicle (DMF) only, used to prepare the stock solution of each ABP. Samples were also pre-treated (±90°C for 30 min) before being incubated with each putative ABP. With trypsin and thrombin, further samples were prepared where Z-Arg^P-(OPh)2 or NAP559, respectively, was added 30 min prior to the addition of the ABP under examination. […]
FIGURE 7 Activity Based Profiling of serine proteases by peptide N-Alkyl glycine carbamates. […] CF Sol (sample 26w) was used at a final concentration of 2.5% (v/v), and the level of NE contained therein was measured using Succinyl-Ala-Ala-Pro-Val-NHMec (50 μM), in the absence (-- o --) and presence (-- o --) of NAP800 (50 μM). […]
as §1

trypsin = target: T3, trypsin (Sus scrofa, UniProt P00761); experiment: Off-target study, residual activity after 2 min pre-incubation: trypsin; format: biochemical, porcine; details: 2 min incubation, PBS pH 7.4, 37°C, residual activity vs DMF control
T3 construct: purchased Sigma-Aldrich; host or cells: porcine pancreas
T3 sequence (P00761 9-231): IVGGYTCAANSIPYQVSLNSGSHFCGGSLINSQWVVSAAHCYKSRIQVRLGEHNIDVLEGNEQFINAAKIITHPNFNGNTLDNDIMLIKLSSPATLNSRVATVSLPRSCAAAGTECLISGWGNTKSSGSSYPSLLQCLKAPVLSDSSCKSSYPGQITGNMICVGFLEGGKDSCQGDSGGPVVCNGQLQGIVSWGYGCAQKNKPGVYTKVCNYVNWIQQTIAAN
Description: FIGURE 5 Results of “off-target“ studies. NAP849 (A), NAP800 (B) and NAP830 (C) were tested against trypsin, chymotrypsin, and NE. Samples (approx. 0.01 μg) of each protease were incubated with the indicated concentrations of test compound for 2 min, in PBS, pH 7.4, at 37°C. (D) NAP858, NAP962 and NAP849 were tested against cathepsin B at the indicated concentrations in 0.1 M MES, pH 6.1, containing 1 mM EDTA, for 2 min, at 37°C. Aliquots (approx. 10 μL) of each incubation sample were then added to a fresh sample (990 μL) of PBS for the serine proteases and MES for cathepsin B, containing the appropriate substrate for each protease, to measure their residual activity. Controls incubations were performed in the absence of test compound, but in the presence of an appropriate volume of DMF vehicle used to prepare stock solutions of each inhibitor under study. […]
For assays requiring a pre-incubation step enzyme and inhibitor in assay buffer were incubated together, at 37 °C, for 2 min, with gentle agitation. […] The fluorescence production was then measured as described for the previous procedure.

T1 sequence (P00747 581-810 limits assumed): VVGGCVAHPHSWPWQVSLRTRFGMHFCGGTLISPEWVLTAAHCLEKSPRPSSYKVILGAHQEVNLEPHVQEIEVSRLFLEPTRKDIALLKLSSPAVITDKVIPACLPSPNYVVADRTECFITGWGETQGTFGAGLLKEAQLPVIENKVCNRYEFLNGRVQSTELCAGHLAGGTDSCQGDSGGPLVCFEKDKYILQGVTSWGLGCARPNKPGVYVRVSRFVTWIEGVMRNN
T1 sequence (P00747 97-580 partner limits assumed): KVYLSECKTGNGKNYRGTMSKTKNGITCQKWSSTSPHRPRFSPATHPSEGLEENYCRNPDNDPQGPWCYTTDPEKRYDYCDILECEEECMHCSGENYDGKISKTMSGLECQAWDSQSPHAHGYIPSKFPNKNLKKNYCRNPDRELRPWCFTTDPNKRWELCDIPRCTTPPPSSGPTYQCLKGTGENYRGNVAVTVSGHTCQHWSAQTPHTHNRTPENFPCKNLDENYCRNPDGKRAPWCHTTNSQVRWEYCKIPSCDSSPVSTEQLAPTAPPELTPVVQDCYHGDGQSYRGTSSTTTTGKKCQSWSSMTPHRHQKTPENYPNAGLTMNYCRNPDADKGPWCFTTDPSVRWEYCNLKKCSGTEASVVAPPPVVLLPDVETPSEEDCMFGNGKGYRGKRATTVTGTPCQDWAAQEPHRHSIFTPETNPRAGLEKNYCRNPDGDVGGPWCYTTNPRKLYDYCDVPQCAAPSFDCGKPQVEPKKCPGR

Row | SMILES | labelling of plasmin by ABP (western blot) (plasmin) | labelling of NE by ABP (western blot) (NE) | off-target inhibition of trypsin (trypsin)
1 | NCCCCN(CC(=O)NCC(=O)NCC(=O)NCCCOCCOCCOCCCNC(=O)CCCCC1SCC2NC(=O)NC21)C(=O)ON1C(=O)CCC1=O (stereo not drawn) [NAP830, Succinimidoyl-CO-NLys-Gly-Gly-PEG-Biotin] | A band corresponding to the light (catalytic) chain of plasmin (26 kDa) was visible |  | 
2 | CC(C)N(CC(=O)NCC(=O)NCC(=O)NCCCOCCOCCOCCCNC(=O)CCCCC1SCC2NC(=O)NC21)C(=O)ON1C(=O)CCC1=O (stereo not drawn) [NAP800, Succinimidoyl-CO-NVal-Gly-Gly-PEG-Biotin] |  | labels a protein band corresponding to the expected molecular size/mass of NE | no “off-target” or collateral inhibition
3 | O=C(CCCCC1SCC2NC(=O)NC21)NCCCOCCOCCOCCCNC(=O)CNC(=O)CNC(=O)CN(Cc1ccccc1)C(=O)ON1C(=O)CCC1=O (stereo not drawn) [NAP849, Succinimidoyl-CO-NPhe-Gly-Gly-PEG-Biotin] |  |  | complete absence of inhibition
4 | CC(C)N(CC(=O)NCCCOCCOCCOCCCNC(=O)CCCCC1SCC2NC(=O)NC21)C(=O)CN(Cc1ccccc1)C(=O)CN(CCCCN)C(=O)ON1C(=O)CCC1=O (centres unmarked) [NAP962, Succinimidoyl-CO-NLys-NPhe-NVal-PEG-Biotin] | A band corresponding to the light (catalytic) chain of plasmin (26 kDa) was visible |  | 
